Like-named read-outs stand apart in the source and are kept apart here.
Columns and labels:
3CLpro of SARS-CoV-2 = target: T1, 3CLpro of SARS-CoV-2 (Severe acute respiratory syndrome coronavirus 2, UniProt P0DTD1); test: biochemical; format: biochemical
T1 construct: The codon-optimized cDNA of full length of 3CLpro of SARS-CoV-2; 6xHis (N); made in house; pET-28a(+) vector (points to E. coli, my inference)

[1] = Nonspecific cytotoxic effects (CC50), CytoTox 96 kit

CC(C)C[C@H](NC(=O)OC1CCC(C)(C)CC1)C(=O)N[C@H](C=O)C[C@@H]1CCNC1=O [Compound 1b, 4,4-Dimethylcyclohexyl ((S)-4-methyl-1-oxo-1-(((S)-1-oxo-3-((S)-2-oxopyrrolidin-3-yl)propan-2-yl)amino)pentan-2-yl)carbamate]
IC50 (3CLpro of SARS-CoV-2): 280 nM
CC50 at 72 h [1]: > 100000 nM

CC(C)C[C@H](NC(=O)O[C@H]1CC[C@H](C(C)C)CC1)C(=O)N[C@H](C=O)C[C@@H]1CCNC1=O [Compound 2b, (1r,4S)-4-isopropylcyclohexyl ((S)-4-methyl-1-oxo-1-(((S)-1-oxo-3-((S)-2-oxopyrrolidin-3-yl)propan-2-yl)amino)pentan-2-yl)carbamate]
IC50 (3CLpro of SARS-CoV-2): 250 nM
CC50 at 72 h [1]: > 100000 nM

CC(C)CC(NC(=O)OC1CCC(C(C)C)CC1)C(=O)NC(CC1CCNC1=O)C(O)S(=O)(=O)O [Compound 2c, Sodium (2S)-1-hydroxy-2-((S)-2-(((((1r,4S)-4-isopropylcyclohexyl)oxy)carbonyl)amino)-4-methylpentanamido)-3-((S)-2-oxopyrrolidin-3-yl)propane-1-sulfonate]
IC50 (3CLpro of SARS-CoV-2): 230 nM
CC50 at 72 h [1]: > 100000 nM

CCCC1CCC(OC(=O)NC(CC(C)C)C(=O)NC(C=O)CC2CCNC2=O)CC1 [Compound 3b, (1s,4S)-4-propylcyclohexyl ((S)-4-methyl-1-oxo-1-(((S)-1-oxo-3-((S)-2-oxopyrrolidin-3-yl)propan-2-yl)amino)pentan-2-yl)carbamate]
IC50 (3CLpro of SARS-CoV-2): 260 nM
CC50 at 72 h [1]: > 100000 nM

CCCCC1CCC(OC(=O)NC(CC(C)C)C(=O)NC(C=O)CC2CCNC2=O)CC1 [Compound 4b, (1s,4S)-4-Butylcyclohexyl ((S)-4-methyl-1-oxo-1-(((S)-1-oxo-3-((S)-2-oxopyrrolidin-3-yl)propan-2-yl)amino)pentan-2-yl)carbamate]
IC50 (3CLpro of SARS-CoV-2): 160 nM
CC50 at 72 h [1]: > 100000 nM

CCCC1CCC(COC(=O)NC(CC(C)C)C(=O)NC(C=O)CC2CCNC2=O)CC1 [Compound 8b, ((1r,4R)-4-Propylcyclohexyl) methyl ((2S)-4-methyl-1-oxo-1-(((2S)-1-oxo-3-(2-oxopyrrolidin-3-yl)propan-2-yl)amino)pentan-2-yl) carbamate]
IC50 (3CLpro of SARS-CoV-2): 220 nM
CC50 at 72 h [1]: > 100000 nM

CC(C)C[C@H](NC(=O)OCC1CCC(F)(F)CC1)C(=O)N[C@H](C=O)C[C@@H]1CCNC1=O [Compound 10b, (4,4-Difluorocyclohexyl)methyl ((S)-4-methyl-1-oxo-1-(((S)-1-oxo-3-((S)-2-oxopyrrolidin-3-yl)propan-2-yl)amino)pentan-2-yl)carbamate]
CC50 at 72 h [1]: > 100000 nM

CC(C)C[C@H](NC(=O)OCC1CCC(F)(F)CC1)C(=O)N[C@@H](C[C@@H]1CCNC1=O)C(O)S(=O)(=O)O (stereo partly drawn) [Compound 10c, Sodium (2S)-2-((S)-2-((((4,4-difluorocyclohexyl)methoxy)carbonyl)amino)-4-methylpentanamido)-1-hydroxy-3-((S)-2-oxopyrrolidin-3-yl)propane-1-sulfonate]
IC50 (3CLpro of SARS-CoV-2; read-out: IC50): 450 nM
CC50 at 72 h [1]: > 100000 nM

[2H]C([2H])(OC(=O)N[C@@H](CC(C)C)C(=O)N[C@H](C=O)CC1CCNC1=O)C1CCC(F)(F)CC1 (stereo partly drawn) [Compound 11b, (4,4-Difluorocyclohexyl) methyl-d2 ((2S)-4-methyl-1-oxo-1-(((2S)-1-oxo-3-(2-oxopyrrolidin-3-yl)propan-2-yl)amino)pentan-2-yl) carbamate]
CC50 at 72 h [1]: > 100000 nM

CC(C)C[C@H](NC(=O)OC(C)C1CCC(F)(F)CC1)C(=O)N[C@H](C=O)C[C@@H]1CCNC1=O (stereo partly drawn) [Compound 12b, 1-(4,4-Difluorocyclohexyl)ethyl ((S)-4-methyl-1-oxo-1-(((S)-1-oxo-3-((S)-2-oxopyrrolidin-3-yl)propan-2-yl)amino)pentan-2-yl)carbamate]
IC50 (3CLpro of SARS-CoV-2): 210 nM
CC50 at 72 h [1]: > 100000 nM

CC(C)C[C@H](NC(=O)OC(C)(C)C1CCC(F)(F)CC1)C(=O)N[C@H](C=O)C[C@@H]1CCNC1=O [Compound 13b, 2-(4,4-Difluorocyclohexyl)propan-2-yl ((S)-4-methyl-1-oxo-1-(((S)-1-oxo-3-((S)-2-oxopyrrolidin-3-yl)propan-2-yl)amino)pentan-2-yl)carbamate]
IC50 (3CLpro of SARS-CoV-2): 800 nM
CC50 at 72 h [1]: > 100000 nM

CC(C)C[C@H](NC(=O)OC(C)(C)C1CCC(F)(F)CC1)C(=O)N[C@@H](C[C@@H]1CCNC1=O)C(O)S(=O)(=O)[O-].[Na+] (stereo partly drawn) [Compound 13c, Sodium (2S)-2-((S)-2-((((2-(4,4-difluorocyclohexyl)propan-2-yl)oxy)carbonyl)amino)-4-methylpentanamido)-1-hydroxy-3-((S)-2-oxopyrrolidin-3-yl)propane-1-sulfonate]
IC50 (3CLpro of SARS-CoV-2): 900 nM
fold higher IC50 than those of 12b and 14c (3CLpro of SARS-CoV-2): ~4 fold
CC50 at 72 h [1]: > 100000 nM

CC(C)C[C@H](NC(=O)OC(Cc1ccccc1)C1CCC(F)(F)CC1)C(=O)N[C@H](C=O)C[C@@H]1CCNC1=O (stereo partly drawn) [Compound 14b, 1-(4,4-Difluorocyclohexyl)-2-phenylethyl ((S)-4-methyl-1-oxo-1-(((S)-1-oxo-3-((S)-2-oxopyrrolidin-3-yl)propan-2-yl)amino)pentan-2-yl)carbamate]
IC50 (3CLpro of SARS-CoV-2): 230 nM
CC50 at 72 h [1]: > 100000 nM

CC(C)C[C@H](NC(=O)OC(c1ccccc1)C1CCC(F)(F)CC1)C(=O)N[C@H](C=O)C[C@@H]1CCNC1=O (stereo partly drawn) [Compound 15b, (4,4-Difluorocyclohexyl)(phenyl)methyl ((S)-4-methyl-1-oxo-1-(((S)-1-oxo-3-((S)-2-oxopyrrolidin-3-yl)propan-2-yl)amino)pentan-2-yl)carbamate]
IC50 (3CLpro of SARS-CoV-2): 100 nM
CC50 at 72 h [1]: > 100000 nM

CC(C)C[C@H](NC(=O)OC(c1ccccc1)C1CCC(F)(F)CC1)C(=O)N[C@@H](C[C@@H]1CCNC1=O)C(O)S(=O)(=O)O (stereo partly drawn) [Compound 15c, Sodium (2S)-2-((2S)-2-((((4,4-difluorocyclohexyl)(phenyl)methoxy)carbonyl)amino)-4-methylpentanamido)-1-hydroxy-3-((S)-2-oxopyrrolidin-3-yl)propane-1-sulfonate]
IC50 (3CLpro of SARS-CoV-2): 160 nM
CC50 at 72 h [1]: > 100000 nM

CCCCC(OC(=O)N[C@@H](CC(C)C)C(=O)N[C@H](C=O)C[C@@H]1CCNC1=O)C1CCC(F)(F)CC1 (stereo partly drawn) [Compound 16b, 1-(4,4-Difluorocyclohexyl)pentyl ((S)-4-methyl-1-oxo-1-(((S)-1-oxo-3-((S)-2-oxopyrrolidin-3-yl)propan-2-yl)amino)pentan-2-yl)carbamate]
IC50 (3CLpro of SARS-CoV-2): 160 nM
CC50 at 72 h [1]: > 100000 nM

CCCCC(OC(=O)N[C@@H](CC(C)C)C(=O)N[C@@H](C[C@@H]1CCNC1=O)C(O)S(=O)(=O)O)C1CCC(F)(F)CC1 (stereo partly drawn) [Compound 16c, Sodium (2S)-2-((2S)-2-((((1-(4,4-difluorocyclohexyl)pentyl)oxy)carbonyl)amino)-4-methylpentanamido)-1-hydroxy-3-((S)-2-oxopyrrolidin-3-yl)propane-1-sulfonate]
IC50 (3CLpro of SARS-CoV-2): 250 nM
CC50 at 72 h [1]: > 100000 nM

CC(C)C[C@H](NC(=O)OCc1ccccc1F)C(=O)N[C@H](C=O)C[C@@H]1CCNC1=O [Compound 17b, 2-Fluorobenzyl ((S)-4-methyl-1-oxo-1-(((S)-1-oxo-3-((S)-2-oxopyrrolidin-3-yl)propan-2-yl)amino)pentan-2-yl)carbamate]
IC50 (3CLpro of SARS-CoV-2): 380 nM
CC50 at 72 h [1]: > 100000 nM

CC(C)C[C@H](NC(=O)OCc1ccccc1F)C(=O)N[C@@H](C[C@@H]1CCNC1=O)C(O)S(=O)(=O)O (stereo partly drawn) [Compound 17c, Sodium (2S)-2-((S)-2-((((2-fluorobenzyl)oxy)carbonyl)amino)-4-methylpentanamido)-1-hydroxy-3-((S)-2-oxopyrrolidin-3-yl)propane-1-sulfonate]
IC50 (3CLpro of SARS-CoV-2): 400 nM
CC50 at 72 h [1]: > 100000 nM

CC(C)C[C@H](NC(=O)OCc1cccc(F)c1)C(=O)N[C@H](C=O)C[C@@H]1CCNC1=O [Compound 18b, 3-Fluorobenzyl ((S)-4-methyl-1-oxo-1-(((S)-1-oxo-3-((S)-2-oxopyrrolidin-3-yl)propan-2-yl)amino)pentan-2-yl)carbamate]
IC50 (3CLpro of SARS-CoV-2): 320 nM
CC50 at 72 h [1]: > 100000 nM

CC(C)C[C@H](NC(=O)OCc1ccc(F)cc1)C(=O)N[C@H](C=O)C[C@@H]1CCNC1=O [Compound 19b, 4-Fluorobenzyl ((S)-4-methyl-1-oxo-1-(((S)-1-oxo-3-((S)-2-oxopyrrolidin-3-yl)propan-2-yl)amino)pentan-2-yl)carbamate]
CC50 at 72 h [1]: > 100000 nM

[2H]C([2H])(OC(=O)N[C@@H](CC(C)C)C(=O)N[C@H](C=O)C[C@@H]1CCNC1=O)c1ccc(F)cc1 [Compound 20b, (4-Fluorophenyl)methyl-d2 ((S)-4-methyl-1-oxo-1-(((S)-1-oxo-3-((S)-2-oxopyrrolidin-3-yl)propan-2-yl)amino)pentan-2-yl)carbamate]
CC50 at 72 h [1]: > 100000 nM

[2H]C([2H])(OC(=O)N[C@@H](CC(C)C)C(=O)N[C@@H](C[C@@H]1CCNC1=O)C(O)S(=O)(=O)[O-])c1ccc(F)cc1.[Na+] (stereo partly drawn) [Compound 20c, Sodium (2S)-2-((S)-2-((((4-fluorophenyl)methoxy-d2)carbonyl)amino)-4-methylpentan amido)-1-hydroxy-3-((S)-2-oxopyrrolidin-3-yl)propane-1-sulfonate]
CC50 at 72 h [1]: > 100000 nM

CC(C)C[C@H](NC(=O)OCc1c(F)c(F)c(F)c(F)c1F)C(=O)N[C@H](C=O)CC1CCNC1=O (stereo partly drawn) [Compound 21b, (Perfluorophenyl)methyl ((2S)-4-methyl-1-oxo-1-(((2S)-1-oxo-3-(2-oxopyrrolidin-3-yl)propan-2-yl)amino)pentan-2-yl) carbamate]
CC50 at 72 h [1]: > 100000 nM

CC(C)CC(NC(=O)OCC1C(c2ccccc2)C1(F)F)C(=O)NC(C=O)CC1CCNC1=O (centres unmarked) [GC1269]
IC50 (3CLpro of SARS-CoV-2): 140 nM

CC(C)CC(NC(=O)OCC1C(c2ccccc2)C1(F)F)C(=O)NC(CC1CCNC1=O)C(O)S(=O)(=O)O (centres unmarked) [GC1270]
IC50 (3CLpro of SARS-CoV-2): 160 nM

CC(C)C[C@H](NC(=O)OCC(C)(C)Oc1ccc(Cl)cc1)C(=O)N[C@H](C=O)CC1CCNC1=O (some centres unmarked) [MM-II-42]
IC50 (3CLpro of SARS-CoV-2): 260 nM

CC(C)C[C@H](NC(=O)OCC(C)(C)Oc1ccc(Cl)cc1)C(=O)N[C@@H](CC1CCNC1=O)C(O)S(=O)(=O)O (some centres unmarked) [MM-II-43]
IC50 (3CLpro of SARS-CoV-2): 240 nM

— US12583820B2, “Broad spectrum antivirals against coronavirus” (priority 2020, dated 2026)
